# According to patent publication US20020137929A1, “1 - (3-heterocyclylphenyl) isothiourea, -isourea, -guanidine and -amidine herbicidal agents” (Intellectual Property Department, BASF Aktiengesellschaft, priority 1998, published 2002):
# Legend:
# [1] = tested on: CHEAL (Lambsquarters, Common); experiment: Preemergence herbicidal evaluation; format: in vivo, Chenopodium album; conditions: rated 4-5 weeks after treatment
# Source text: (§1) Results of herbicide evaluation are expressed on a rating scale (0-9). The scale is based upon a visual observation of plant stand, vigor, malformation, size, chlorosis and overall plant appearance as compared with a control.
# (§2) The preemergence herbicidal activity of the test compounds of the present invention is exemplified by the following tests in which the seeds of a variety of monocotyledonous and dicotyledonous plants are separately mixed with potting soil and planted on top of approximately one inch of soil in separate pint cups. After planting, the cups are sprayed with the selected aqueous acetone solution containing test compound in sufficient quantity to provide the equivalent of about 0.0156 to 0.500 kg per hectare of test compound per cup. The treated cups are then placed on greenhouse benches, watered and cared for in accordance with conventional greenhouse procedures. From four to five weeks after treatment, the tests are terminated and each cup is examined and rated according to the rating system provided in Example 37.
# (§3) The compounds evaluated are reported by compound number given in Example 37.
# ZEAMX (Corn, Field) [2] = experiment: Preemergence herbicidal evaluation; format: in vivo, Zea mays; conditions: rated 4-5 weeks after treatment
# Method in brief: (§4)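 Herbicidal effect scored visually, 0-9, at 4 to 5 weeks against a control; compound applied preemergence by aqueous acetone spray to seeded soil at about 0.0156 to 0.500 kg/ha.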
# [3] = tested on: GLXMAW (Soybean, Williams); experiment: Preemergence herbicidal evaluation; format: in vivo, Glycine max, (L.) Merr. cv Williams; conditions: rated 4-5 weeks after treatment
# Source text: as §1, §2, §3
# [4] = tested on: TRZAWR (Wheat, Winter, cv Riband); experiment: Preemergence herbicidal evaluation; format: in vivo, Triticum aestivum; conditions: rated 4-5 weeks after treatment
# Method in brief: as §4
# ECHCG (Barnyardgrass) [5] = experiment: Postemergence herbicidal evaluation; format: in vivo, Echinochloa crus-galli; conditions: postemergence
# Method in brief: (§5)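 Scores (0–9) reflect plant stand, vigor, malformation, size, chlorosis and general appearance relative to control, read 4 to 5 weeks after treatment and averaged where tests were repeated. Application: about 0.0156–0.500 kg/ha sprayed at 40 psi onto two-week seedlings.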
# ZEAMX (Corn, Field) [6] = experiment: Postemergence herbicidal evaluation; format: in vivo, Zea mays; conditions: postemergence
# Method in brief: as §5
# [7] = tested on: IPOHE (Morningglory, Ivyleaf); experiment: Preemergence herbicidal evaluation; format: in vivo, Ipomoea hederacea; conditions: rated 4-5 weeks after treatment
# Source text: as §1, §2, §3
# ECHCG (Barnyardgrass) [8] = experiment: Preemergence herbicidal evaluation; format: in vivo, Echinochloa crus-galli; conditions: rated 4-5 weeks after treatment
# Source text: as §1, §2, §3
# CASOB (Sicklepod) = experiment: Preemergence herbicidal evaluation; format: in vivo, Cassia obtusifolia; conditions: rated 4-5 weeks after treatment
# Method in brief: as §4
# [9] = tested on: IPOHE (Morningglory, Ivyleaf); experiment: Postemergence herbicidal evaluation; format: in vivo, Ipomoea hederacea; conditions: postemergence
# Method in brief: as §5
# ABUTH (Velvetleaf) [10] = experiment: Preemergence herbicidal evaluation; format: in vivo, Abutilon theophrasti; conditions: rated 4-5 weeks after treatment
# Source text: as §1, §2, §3
# [11] = tested on: CHEAL (Lambsquarters, Common); experiment: Postemergence herbicidal evaluation; format: in vivo, Chenopodium album; conditions: postemergence
# Method in brief: as §5
# ABUTH (Velvetleaf) [12] = experiment: Postemergence herbicidal evaluation; format: in vivo, Abutilon theophrasti; conditions: postemergence
# Method in brief: as §5
# SETVI (Foxtail, Green) = experiment: Postemergence herbicidal evaluation; format: in vivo, Setaria viridis; conditions: postemergence
# Method in brief: as §5
# ORYSAT (Rice, Tebonnet) = experiment: Postemergence herbicidal evaluation; format: in vivo, Oryza sativa, (L.) Tebonnet; conditions: postemergence
# Method in brief: as §5
compound,measurement,setting,value
CC(C)OC(=O)CN1C(=O)CSC1=Nc1cc(-n2c(=O)cc(C(F)(F)F)n(C)c2=O)c(F)cc1Cl [Compound 110],Preemergence herbicidal rating CHEAL,[1]; rate 0.0156 kg/ha,8.0
same,Preemergence herbicidal rating CHEAL,[1]; rate 0.0313 kg/ha,9.0
same,Preemergence herbicidal rating CHEAL,[1]; rate 0.0625 kg/ha,9.0
same,Preemergence herbicidal rating CHEAL,[1]; rate 0.1250 kg/ha,9.0
same,Preemergence herbicidal rating CHEAL,[1]; rate 0.2500 kg/ha,9.0
same,Preemergence herbicidal rating CHEAL,[1]; rate 0.5000 kg/ha,9.0
same,Preemergence herbicidal rating ZEAMX,"ZEAMX (Corn, Field) [2]; rate 0.0156 kg/ha",0.0
same,Preemergence herbicidal rating ZEAMX,"ZEAMX (Corn, Field) [2]; rate 0.0313 kg/ha",0.5
same,Preemergence herbicidal rating ZEAMX,"ZEAMX (Corn, Field) [2]; rate 0.0625 kg/ha",1.0
same,Preemergence herbicidal rating ZEAMX,"ZEAMX (Corn, Field) [2]; rate 0.1250 kg/ha",2.5
same,Preemergence herbicidal rating ZEAMX,"ZEAMX (Corn, Field) [2]; rate 0.2500 kg/ha",3.5
same,Preemergence herbicidal rating ZEAMX,"ZEAMX (Corn, Field) [2]; rate 0.5000 kg/ha",4.0
same,Preemergence herbicidal rating GLXMAW,[3]; rate 0.0156 kg/ha,0.5
same,Preemergence herbicidal rating GLXMAW,[3]; rate 0.0313 kg/ha,0.5
same,Preemergence herbicidal rating GLXMAW,[3]; rate 0.0625 kg/ha,2.5
same,Preemergence herbicidal rating GLXMAW,[3]; rate 0.1250 kg/ha,4.0
same,Preemergence herbicidal rating GLXMAW,[3]; rate 0.2500 kg/ha,5.5
same,Preemergence herbicidal rating GLXMAW,[3]; rate 0.5000 kg/ha,7.0
same,Preemergence herbicidal rating TRZAWR,[4]; rate 0.0156 kg/ha,0.0
same,Preemergence herbicidal rating TRZAWR,[4]; rate 0.0313 kg/ha,1.0
same,Preemergence herbicidal rating TRZAWR,[4]; rate 0.0625 kg/ha,1.0
same,Preemergence herbicidal rating TRZAWR,[4]; rate 0.1250 kg/ha,1.0
same,Preemergence herbicidal rating TRZAWR,[4]; rate 0.2500 kg/ha,1.0
same,Herbicidal rating ECHCG,ECHCG (Barnyardgrass) [5]; rate 0.0158 kg/ha,1.0
same,Herbicidal rating ECHCG,ECHCG (Barnyardgrass) [5]; rate 0.0315 kg/ha,5.0
same,Herbicidal rating ECHCG,ECHCG (Barnyardgrass) [5]; rate 0.0630 kg/ha,4.0
same,Herbicidal rating ZEAMX,"ZEAMX (Corn, Field) [6]; rate 0.0158 kg/ha",5.0
same,Herbicidal rating ZEAMX,"ZEAMX (Corn, Field) [6]; rate 0.0315 kg/ha",6.5
same,Herbicidal rating ZEAMX,"ZEAMX (Corn, Field) [6]; rate 0.0630 kg/ha",7.0
same,Preemergence herbicidal rating IPOHE,[7]; rate 0.0156 kg/ha,3.5
same,Preemergence herbicidal rating IPOHE,[7]; rate 0.0313 kg/ha,4.5
same,Preemergence herbicidal rating IPOHE,[7]; rate 0.0625 kg/ha,5.5
same,Preemergence herbicidal rating IPOHE,[7]; rate 0.1250 kg/ha,9.0
same,Preemergence herbicidal rating IPOHE,[7]; rate 0.2500 kg/ha,9.0
same,Preemergence herbicidal rating IPOHE,[7]; rate 0.5000 kg/ha,9.0
same,Preemergence herbicidal rating ECHCG,ECHCG (Barnyardgrass) [8]; rate 0.0156 kg/ha,0.0
same,Preemergence herbicidal rating ECHCG,ECHCG (Barnyardgrass) [8]; rate 0.0313 kg/ha,0.0
same,Preemergence herbicidal rating ECHCG,ECHCG (Barnyardgrass) [8]; rate 0.0625 kg/ha,0.5
same,Preemergence herbicidal rating ECHCG,ECHCG (Barnyardgrass) [8]; rate 0.1250 kg/ha,2.0
same,Preemergence herbicidal rating ECHCG,ECHCG (Barnyardgrass) [8]; rate 0.2500 kg/ha,3.0
same,Preemergence herbicidal rating ECHCG,ECHCG (Barnyardgrass) [8]; rate 0.5000 kg/ha,4.0
same,Preemergence herbicidal rating CASOB,CASOB (Sicklepod); rate 0.0156 kg/ha,0.0
same,Preemergence herbicidal rating CASOB,CASOB (Sicklepod); rate 0.0313 kg/ha,0.0
same,Preemergence herbicidal rating CASOB,CASOB (Sicklepod); rate 0.0625 kg/ha,0.0
same,Preemergence herbicidal rating CASOB,CASOB (Sicklepod); rate 0.1250 kg/ha,2.0
same,Preemergence herbicidal rating CASOB,CASOB (Sicklepod); rate 0.2500 kg/ha,5.0
same,Preemergence herbicidal rating CASOB,CASOB (Sicklepod); rate 0.5000 kg/ha,9.0
same,Herbicidal rating IPOHE,[9]; rate 0.0158 kg/ha,9.0
same,Herbicidal rating IPOHE,[9]; rate 0.0315 kg/ha,9.0
same,Herbicidal rating IPOHE,[9]; rate 0.0630 kg/ha,9.0
same,Preemergence herbicidal rating ABUTH,ABUTH (Velvetleaf) [10]; rate 0.0156 kg/ha,5.5
same,Preemergence herbicidal rating ABUTH,ABUTH (Velvetleaf) [10]; rate 0.0313 kg/ha,9.0
same,Preemergence herbicidal rating ABUTH,ABUTH (Velvetleaf) [10]; rate 0.0625 kg/ha,9.0
same,Preemergence herbicidal rating ABUTH,ABUTH (Velvetleaf) [10]; rate 0.1250 kg/ha,9.0
same,Preemergence herbicidal rating ABUTH,ABUTH (Velvetleaf) [10]; rate 0.2500 kg/ha,9.0
same,Preemergence herbicidal rating ABUTH,ABUTH (Velvetleaf) [10]; rate 0.5000 kg/ha,9.0
same,Herbicidal rating CHEAL,[11]; rate 0.0158 kg/ha,9.0
same,Herbicidal rating CHEAL,[11]; rate 0.0315 kg/ha,9.0
same,Herbicidal rating CHEAL,[11]; rate 0.0630 kg/ha,9.0
same,Herbicidal rating ABUTH,ABUTH (Velvetleaf) [12]; rate 0.0158 kg/ha,9.0
same,Herbicidal rating ABUTH,ABUTH (Velvetleaf) [12]; rate 0.0315 kg/ha,9.0
same,Herbicidal rating ABUTH,ABUTH (Velvetleaf) [12]; rate 0.0630 kg/ha,9.0
same,Herbicidal rating SETVI,"SETVI (Foxtail, Green); rate 0.0158 kg/ha",1.0
same,Herbicidal rating SETVI,"SETVI (Foxtail, Green); rate 0.0315 kg/ha",9.0
same,Herbicidal rating SETVI,"SETVI (Foxtail, Green); rate 0.0630 kg/ha",9.0
same,Herbicidal rating ORYSAT,"ORYSAT (Rice, Tebonnet); rate 0.0158 kg/ha",2.5
same,Herbicidal rating ORYSAT,"ORYSAT (Rice, Tebonnet); rate 0.0315 kg/ha",3.5
same,Herbicidal rating ORYSAT,"ORYSAT (Rice, Tebonnet); rate 0.0630 kg/ha",3.5
